Consider 26 molecules from patent US5861400A, “Pharmaceutical compounds” (Xenova Limited, priority 1994, dated 1999).

Common to all, as to format: cell-based, mouse
Series [1] deals with AR 1.0 cells. Description: Drug accumulation assay (tritiated daunorubicin, AR 1.0 cells). The following applies: for Emax / MAX accumulation (% 100 μm VRP): 100% = accumulation with 100 μM Verapamil, compounds 100 nM to 100 μM; for Emax: read-out: MAX accumulation (% 100 μm VRP); for IC50: daunorubicin accumulation, 37° C., DNR 2 μM. On the procedure: (§1) The EMT6 mouse mammary carcinoma cell line and the MDR resistant subline AR 1.0 were cultured in RPMI 1640 medium containing 10% foetal calf serum and 2mM glutamine at 37° C. in 5% CO2. Cells were passaged between 1 in 200 and 1 in 2000 in the case of the parental cell line and between 1 in 20 and 1 in 200 in the case of the MDR resistant subline, after trypsinisation (0.25% trypsin, 0.2 gl^-1, EDTA).
1. Drug accumulation assay
AR 1.0 cells were seeded into 96 well opaque culture plates (Canberra Packard). The assay medium contained a mixture of tritiated Daunorubicin (DNR), a cytotoxic agent, and unlabelled DNR (0.25μ Ci/ml; 2 μM). Compounds of formula A were serially diluted in assay medium over a range of concentrations from 100 nM to 100 μM. The cells were incubated at 37° C. for 1 hr before washing and counting of cell associated radioactivity. Each assay included a titration of the known resistance modifying agent Verapamil as positive control. Results were expressed as % maximum accumulation where 100% accumulation is that observed in the presence of 100 μM Verapamil.

Series [2] deals with AR 1.0 cells. Briefly: Proliferation/toxicity assay, compound alone and with cytotoxic agent (sulphorhodamine B).
For series [3], the system named is AR 1.0 cells. Description: Potentiation of Doxorubicin toxicity (potentiation index, AR 1.0 cells). The following applies: Conc Comp 5 μM; doxorubicin 0.5 nM-50 μM, four days. On the procedure: as §1
2. Potentiation of Doxorubicin toxicity
Compounds of formula A were examined for their ability to potentiate the toxicity of doxorubicin in AR 1.0 cells. In initial proliferation assays compounds were titrated against a fixed concentration of doxorubicin (0.5-1 μM) which alone is non-toxic to AR 1.0 cells. Incubations with doxorubicin were over a four day period before quantitation of proliferation using the calorimetric sulphorhodamine B assay (Skehan et al; J. Natl. Cancer Inst. 82 pp 1107-1112 (1990)).
Cells were cultured for four days with concentrations of doxorubicin over the range of 0.5 nM-50 μM in the presence of Verapramil at its maximum subtoxic level determined from previous experiments. Proliferation was quantified as described by Skehan et al, loc cit. The IC50 (concentration required to reduce proliferation to 50% of the untreated controls) for doxorubicin alone and with the Verapamil were derived and used to calculate the potentiation index (PI): […]

Where [4] appears, read: Mus musculus, compound alone, read-out: COMPOUND TOXICITY (IC50 μM).
The mark [5] stands for this setting: cytotoxic agent (doxorubicin) 0.50 μg/ml, 5760 min, read-out: TOXICITY WITH CYTOTOXIC AGENT (IC 50 μM).

Structures can show the parent of a compound that is named as a salt.

On to `COc1ccc(/C=c2/c(=O)[nH]/c(=C\c3cccs3)c(=O)n2C)cc1` [Compound 1564, (3Z,6Z)-6-(4-Methoxybenzylidene)-1-methyl-3-(2-thienylmethylene)-2,5-piperazinedione], for which, in the series with AR 1.0 cells [1] (Mus musculus, 1 hr), the Emax turned out to be 46.3%.
As to “(3Z,6Z)-3-Benzylidene-6-(2-furyl)-1,4-dimethyl-2,5-piperazinedione [Compound 1799]”, the “MAX accumulation (% 100 μm VRP)” value in the series on AR 1.0 cells [1] (1 hr) was 40.0%.
`Cn1c(=O)/c(=C/c2cn(CCCN3C(=O)c4ccccc4C3=O)c3ccccc23)n(C)c(=O)/c1=C/c1ccccc1` [Compound 1943, (3Z,6Z)-3-Benzylidene-1,4-dimethyl-6-(3-(1-(3-phthalimido)propyl)indolyl)methylene-2,5-piperazinedione]: the IC50 with AR 1.0 cells [2] (setting [4]) was found to be 60 µM; in the series with AR 1.0 cells [2] (setting [5]), 0.2 µM; with AR 1.0 cells [1] (Mus musculus, 1 h), 10 µM. Further, in the series on AR 1.0 cells [3], the “Potentiation Index (at 5 μM)” value is 20.
For `COc1ccc(/C=c2/c(=O)n(C)/c(=C\C=Cc3ccccc3)c(=O)n2C)cc1` [Compound 1777, (3Z,6Z)-3-Cinnamylidene-6-(4-methoxybenzylidene)-1,4-dimethyl-2,5-piperazinedione], in the series with AR 1.0 cells [1] (Mus musculus, 1 hr), the Emax was 50%. This molecule also displayed an IC50 with AR 1.0 cells [1] (Mus musculus, 1 h) of 80 µM.
Regarding `Cn1c(=O)/c(=C/C2CCCCC2)n(C)c(=O)/c1=C/c1ccccc1` [Compound 1871, (3Z,6Z)-3-Benzylidene-6-cyclohexylmethylene-1,4-dimethyl-2,5-piperazinedione], the IC50 in the series on AR 1.0 cells [2] (setting [4]) was determined as 40 µM; in the series with AR 1.0 cells [2] (setting [5]), 1 µM; in the series with AR 1.0 cells [1] (Mus musculus, 1 h) it was 6 µM. Besides, the “Potentiation Index (at 5 μM)” value with AR 1.0 cells [3] is recorded as 20.
In the case of `O=c1[nH]/c(=C\c2ccncc2)c(=O)n(Cc2ccccc2)/c1=C\c1ccccc1` [Compound 1840, (3Z,6Z)-1-Benzyl-6-benzylidene-3-(4-pyridyl)methylene-2,5-hydrochloride], the IC50 with AR 1.0 cells [2] (compound alone, read-out: COMPOUND TOXICITY (IC50 μM)) turned out to be 5 µM; with AR 1.0 cells [2] (setting [5]), 1 µM; with AR 1.0 cells [1] (1 hr), 12 µM.
As to `Cn1c(=O)/c(=C/c2ccccc2)nc(OCCCN2C(=O)CCC2=O)/c1=C/c1ccccc1` [Compound 1934, (3Z,6Z)-3,6-Dibenzylidene-1-methyl-5-(3-succinmidopropoxy)-3,6-dihydro-2-pyrazinone], the IC50 in the series with AR 1.0 cells [1] (Mus musculus, 1 h) was 1 µM.
Take `COc1ccc(/C=c2/c(=O)n(Cc3ccccc3)/c(=C\c3ccoc3)c(=O)n2C)cc1` [Compound 1880, (3Z,6Z)-4-Benzyl-3-(3-furylmethylene)-6-(4-methoxybenzylidene)-1-methyl-2,5-piperazinedione]: the IC50 amounted to 10 µM in the series on AR 1.0 cells [2] (setting [4]) and 7 µM with AR 1.0 cells [1] (Mus musculus, 1 h).
In turn, `COc1ccc(/C=c2/c(=O)n(Cc3ccccc3)/c(=C\c3cn(C(=O)OC(C)(C)C)c4ccccc34)c(=O)n2C)cc1` [Compound 1874, (3Z,6Z)-4-benzyl-3-(1-tertbutoxycarbonyl-3-indolyl)methylene-6-(4-methoxybenzylidene)-1-methyl-2,5-piperazinedione] displayed an IC50 in the series on AR 1.0 cells [1] (Mus musculus, 1 h) of 10 µM. In the series with AR 1.0 cells [3], the “Potentiation Index (at 5 μM)” value came out at 20.
In the series with AR 1.0 cells [1] (Mus musculus, 1 h), `Cn1c(=O)/c(=C/c2ccccc2)n(CCCN2C(=O)CCC2=O)c(=O)/c1=C/c1ccccc1` [Compound 1932, (3Z,6Z)-3,6-Dibenzylidene-4-methyl-1-(3-succinimidopropyl)-2,5-piperazinedione] gave an IC50 of 10 µM.
`Cn1c(=O)/c(=C/c2cn(C(=O)OCc3ccccc3)c3ccccc23)n(C)c(=O)/c1=C/c1ccccc1` [Compound 1940, (3Z,6Z)-3-Benzylidene-6-(1-benzyloxycarbonyl-3-indolyl)methylene-1,4-dimethyl-2,5-piperazinedione]: the IC50 in the series with AR 1.0 cells [2] (setting [4]) came to 7 µM; in the series on AR 1.0 cells [1] (Mus musculus, 1 h), 10 µM. Besides, in the series with AR 1.0 cells [3], the “Potentiation Index (at 5 μM)” value worked out at 14.
In the case of `Cn1c(=O)/c(=C/c2ccccc2)nc(OCCCN2C(=O)C(=O)c3ccccc32)/c1=C/c1ccccc1` [Compound 1935, (3Z,6Z)-3,6-Dibenzylidene-5-(2,3-dioxo-1-indolinyl)propoxy-1-methyl-3,6-dihydro-2-pyrazinone], the IC50 in the series on AR 1.0 cells [1] (Mus musculus, 1 h) turned out to be 6 µM.
For the molecule `Cn1c(=O)/c(=C/c2cn(C(=O)OC(C)(C)C)c3ccccc23)n(C)c(=O)/c1=C/c1c(Cl)cccc1Cl` [Compound 1873, (3Z,6Z)-6-(2,6-dichlorobenzylidene)-3-(1-tertbutoxycarbonyl-3-indolyl)methylene-1,4-dimethyl-2,5-piperazinedione], the IC50 in the series with AR 1.0 cells [2] (setting [4]) worked out at 8 µM; in the series with AR 1.0 cells [1] (Mus musculus, 1 h), 5 µM. The Emax with AR 1.0 cells [1] (Mus musculus, 1 hr) turned out to be 56%.
For `Cn1c(=O)/c(=C/c2ccccc2)[nH]c(=O)/c1=C/c1cccs1` [Compound 1569, (3Z,6Z)-3-Benzylidene-1-methyl-6-(2-thienylmethylene)-2,5-piperazinedione], the Emax in the series on AR 1.0 cells [1] (Mus musculus, 1 hr) was determined as 46%.
As to `Cn1c(=O)/c(=C/c2c[nH]c3ccccc23)n(C)c(=O)/c1=C/c1ccccc1` [Compound 1896, (3Z,6Z)-3-Benzylidene-6-(3-indoly)methylene-1,4-dimethyl-2,5-piperazinedione], the IC50 in the series with AR 1.0 cells [2] (setting [4]) came to 30 µM; in the series on AR 1.0 cells [2] (setting [5]), 4 µM; in the series with AR 1.0 cells [1] (Mus musculus, 1 h), 12 µM.
Regarding `COc1ccc(/C=c2\[nH]c(=O)/c(=C/c3cccs3)n(C)c2=O)cc1` [Compound 1597, (3Z,6Z)-3-(4-Methoxybenzylidene)-1-methyl-6-(2-thienylmethylene)-2,5-piperazinedione], the IC50 worked out at 25 µM with AR 1.0 cells [2] (setting [4]); 6 µM in the series on AR 1.0 cells [2] (cytotoxic agent (doxorubicin) 1.00 μg/ml, 5760 min, read-out: TOXICITY WITH CYTOTOXIC AGENT (IC 50 μM)); 50 µM with AR 1.0 cells [1] (Mus musculus, 1 h). For the same molecule, the Emax in the series with AR 1.0 cells [1] (Mus musculus, 1 hr) was 59.1%.
As to `COc1cccc2c1C(=O)c1c(O)c3c(c(O)c1C2=O)C[C@@](O)(C(=O)CO)C[C@@H]3O[C@H]1C[C@H](N)[C@H](O)[C@H](C)O1` [doxorubicin, reference compound], the “toxicity of doxorubicin alone to AR 1.0 cells” value with AR 1.0 cells [2] (0.5-1 μM, alone) is listed as “non-toxic”.
On to `Cn1c(=O)/c(=C/c2cn(C(=O)OC(C)(C)C)c3ccccc23)nc(OCCCN2C(=O)c3ccccc3C2=O)/c1=C/c1ccccc1` [Compound 1895, (3Z,6Z)-6-Benzylidene-1-methyl-5-(3-phthalimidopropoxy)-3-(l-tert-butoxycarbonyl-3-indolyl)methylene-3,6-dihydro-2-pyrazinone], for which, in the series on AR 1.0 cells [1] (Mus musculus, 1 hr), the Emax was found to be 12%.
With `COc1ccc(/C=c2\[nH]c(=O)/c(=C/c3ccoc3)n(C)c2=O)cc1` [Compound 1596], in the series on AR 1.0 cells [1] (Mus musculus, 1 hr), the Emax was 47.7%.
As for `COc1ccc(/C=c2/c(=O)[nH]/c(=C\c3cn(C(=O)OC(C)(C)C)c4ccccc34)c(=O)n2C)cc1` [Compound 1565, (3Z,6Z)-6-(4-Methoxybenzylidene)-1-methyl-3-(1-tert-butoxycarbonyl-3-indolyl)methylene-2,5-piperazinedione], the Emax in the series with AR 1.0 cells [1] (Mus musculus, 1 hr) stood at 37.3%.
With `COc1ccc(/C=c2/c(=O)[nH]/c(=C\c3ccoc3)c(=O)n2C)cc1` [Compound 1563, (3Z,6Z)-3-(3-Furyl)methylene-6-(4-methoxybenzylidene)-1-methyl-2,5-piperazinedione], the Emax in the series with AR 1.0 cells [1] (Mus musculus, 1 hr) came to 32.9%.
With `Cn1c(=O)/c(=C/c2ccccc2[N+](=O)[O-])n(C)c(=O)/c1=C/c1cccs1` [Compound 1877, (3Z,6Z)-1,4-dimethyl-6-(2-nitrobenzylidene)-3-(2-thienylmethylene)-2,5-piperazinedione], in the series on AR 1.0 cells [1] (Mus musculus, 1 h), the IC50 stood at 20 µM.
On to `Cn1c(=O)/c(=C/c2ccccc2)[nH]c(=O)/c1=C/c1ccsc1` [Compound 1641, (3Z,6Z)-3-Benzylidene-1-methyl-6-(3-thienylmethylene)-2,5-piperazinedione], for which, in the series on AR 1.0 cells [1] (Mus musculus, 1 hr), the Emax came out at 50.5%.
In the case of `Cn1c(=O)/c(=C/c2cn(C(=O)OC(C)(C)C)c3ccccc23)n(C)c(=O)/c1=C/c1ccoc1` [Compound 1875, (3Z,6Z)-6-(3-furylmethylene)-6-(1-tertbutoxycarbonyl-3-indolyl)methylene-1,4-dimethyl-2,5-piperazinedione], the IC50 with AR 1.0 cells [2] (setting [4]) came to 10 µM; in the series on AR 1.0 cells [2] (setting [5]), 0.8 µM; in the series on AR 1.0 cells [1] (Mus musculus, 1 h), 5 µM.
As to “(3Z,6Z)-6-Benzylidene-1-methyl-3-(1-tert-butoxycarbonyl-3-(l-tert-butoxycarbonyl-3-indolyl)methylene-2,5-piperazinedione [Compound 1894]”, in the series on AR 1.0 cells [1] (1 hr), the “MAX accumulation (% 100 μm VRP)” value was determined as 36.0%.
Same read-out and setting: for “(3Z,6Z)-6-Benzylidene-3-furylidene-1,4-dimethyl-2,5-piperazinedione [Compound 1836]” the value was 14.0%.
